The text below walks through data of PubChem BioAssay (NCI).

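Grown in 96-well plates, cells were treated for 48 hours with each compound at five concentrations. Insufficient inhibition: endpoint recorded as highest concentration tested. The concentration for 50% growth inhibition is given as GI50. TGI marks complete inhibition of growth.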

Test systems include OVCAR-4 ovarian; NCI-H522 lung; COLO 205 colon; RXF 393 renal; LOX IMVI melanoma; SF-295 CNS; CAKI-1 renal; SK-MEL-2 melanoma; NCI-H23 lung.
Test in all cases: growth of human tumour cells (NCI), 48 h

On to `C1C[OH+]CCNCC[OH+]CC[OH+]CCN1.[Cl-].[Pt+4]`, for which the GI50 with OVCAR-4 ovarian, in the test with NCI-H522 lung, in the test on COLO 205 colon, in the test with RXF 393 renal, with LOX IMVI melanoma and with SF-295 CNS was above 100 µM in each case. Also, the GI50 with CAKI-1 renal, in the test with SK-MEL-2 melanoma and in the test with NCI-H23 lung was above 100 µM in each case. Besides, the TGI in the test with OVCAR-4 ovarian, with NCI-H522 lung, in the test with COLO 205 colon, with RXF 393 renal, in the test with LOX IMVI melanoma and in the test with SF-295 CNS was above 100 µM in each case. In addition, the TGI with CAKI-1 renal, with SK-MEL-2 melanoma and with NCI-H23 lung was above 100 µM throughout.

Regarding `Cc1cc(C2CC(O)C(CO)O2)cc2c(=O)[nH]c(N)nc12` (stereo not given), the GI50 with OVCAR-4 ovarian, with NCI-H522 lung, in the test with COLO 205 colon, in the test on RXF 393 renal, in the test on LOX IMVI melanoma and in the test on SF-295 CNS was above 100 µM throughout. The GI50 in the test with CAKI-1 renal, in the test with SK-MEL-2 melanoma and in the test with NCI-H23 lung was above 100 µM in each case. For the same molecule, the TGI in the test with OVCAR-4 ovarian, in the test on NCI-H522 lung, with COLO 205 colon, in the test on RXF 393 renal, with LOX IMVI melanoma and with SF-295 CNS was above 100 µM in each case. The TGI in the test on CAKI-1 renal, with SK-MEL-2 melanoma and with NCI-H23 lung was above 100 µM each time.

Turning to `Cn1cc(C2=C(c3cn(CCCCCN)c4ccccc34)C(=O)NC2=O)c2ccccc21`, the GI50 in the test on OVCAR-4 ovarian is 12.7 µM; in the test on NCI-H522 lung, 15.5 µM; in the test with COLO 205 colon, 6.06 µM; in the test with RXF 393 renal, 3.66 µM; with LOX IMVI melanoma it was 4.9 µM; with SF-295 CNS, 9.37 µM. The results for the GI50 with CAKI-1 renal, with SK-MEL-2 melanoma and in the test with NCI-H23 lung were 8.25 µM, 7.1 µM and 9.98 µM, respectively. Moreover, the TGI is above 25 µM with OVCAR-4 ovarian; above 25 µM in the test on NCI-H522 lung; above 21 µM with COLO 205 colon; 9.47 µM in the test with RXF 393 renal; 13.5 µM with LOX IMVI melanoma; above 20.1 µM in the test with SF-295 CNS. Besides, the TGI in the test on CAKI-1 renal is above 25 µM; in the test on SK-MEL-2 melanoma, 18.2 µM; in the test on NCI-H23 lung, above 25 µM.

As for `O=C(Nc1ccc(-n2cc(-c3ccncc3)c(-c3ccc(Cl)c(O)c3)n2)cc1)Nc1ccc(Cl)c(C(F)(F)F)c1`, the GI50 with OVCAR-4 ovarian is 0.639 µM; with COLO 205 colon it was 1.68 µM; in the test on RXF 393 renal, 0.755 µM; in the test on LOX IMVI melanoma, 1.44 µM; in the test with SF-295 CNS, 1.26 µM; with CAKI-1 renal it was 3.01 µM. For the same molecule, the GI50 was 1.7 µM with SK-MEL-2 melanoma and 1.67 µM in the test on NCI-H23 lung. The TGI turned out to be 6.12 µM in the test on OVCAR-4 ovarian; 3.7 µM in the test with COLO 205 colon; 2.31 µM with RXF 393 renal; 2.75 µM in the test with LOX IMVI melanoma; 2.86 µM in the test on SF-295 CNS; 15.3 µM in the test with CAKI-1 renal. Besides, the TGI was found to be 3.27 µM in the test on SK-MEL-2 melanoma and 3.43 µM in the test on NCI-H23 lung.

Regarding `[Au+].[Au+].[Au+].[c-]1nccn1Cc1ccccc1.[c-]1nccn1Cc1ccccc1.[c-]1nccn1Cc1ccccc1`, the GI50 in the test on OVCAR-4 ovarian was 12.7 µM; in the test with NCI-H522 lung, 1.58 µM; with COLO 205 colon, 1.74 µM; in the test with RXF 393 renal, 2.03 µM; with LOX IMVI melanoma it was 1.56 µM; in the test with SF-295 CNS, 10.5 µM. The GI50 in the test on CAKI-1 renal is 11.2 µM; with SK-MEL-2 melanoma it was 1.98 µM; in the test on NCI-H23 lung, 4.97 µM. Besides, the TGI with OVCAR-4 ovarian turned out to be 44.1 µM; in the test with NCI-H522 lung, 2.95 µM; in the test with COLO 205 colon, 3.16 µM; in the test on RXF 393 renal, 5.8 µM; in the test on LOX IMVI melanoma, 3.08 µM; in the test on SF-295 CNS it was 40.2 µM. The TGI turned out to be 25.9 µM in the test on CAKI-1 renal, 3.9 µM with SK-MEL-2 melanoma and 30.7 µM in the test with NCI-H23 lung.

In the case of `CN(CCCNC(=O)Cc1ccc2ccc3cccc4ccc1c2c34)CCCNc1cc(-c2ccc3ccccc3c2)nc2ccccc12`, the GI50 in the test with OVCAR-4 ovarian is 1.46 µM; with COLO 205 colon it was 1.42 µM; in the test with CAKI-1 renal, 1.8 µM; in the test on SK-MEL-2 melanoma it was 1.82 µM; with NCI-H23 lung, 1.68 µM. Moreover, the TGI in the test on OVCAR-4 ovarian worked out at 2.78 µM; in the test with COLO 205 colon, 2.83 µM; in the test on CAKI-1 renal it was 3.55 µM; in the test with SK-MEL-2 melanoma, 3.55 µM; with NCI-H23 lung, 3.18 µM.

As to `COC(=O)/C(C)=C/[N+](=O)[O-]`, the TGI with OVCAR-4 ovarian was 33.5 µM; with COLO 205 colon, 16.6 µM; with RXF 393 renal, 35.6 µM; with LOX IMVI melanoma, 38.9 µM; in the test on SF-295 CNS, 30.3 µM; in the test with CAKI-1 renal, 8.14 µM. The TGI with SK-MEL-2 melanoma was 38.7 µM; in the test on NCI-H23 lung, 41.2 µM.

In the case of `COc1cc2c(cc1O)C1Cc3ccc(OC)c(O)c3C(C2)N1C` (stereo not given), the TGI with OVCAR-4 ovarian, with NCI-H522 lung, in the test on COLO 205 colon, with RXF 393 renal, in the test with LOX IMVI melanoma and with SF-295 CNS was above 100 µM in each case. Besides, the TGI in the test on CAKI-1 renal, in the test on SK-MEL-2 melanoma and in the test on NCI-H23 lung was above 100 µM in each case.

Consider `COc1cccc(-n2c3nc(=O)n(C)c(=O)c-3nc3ccccc32)c1`, for which the TGI is 25.2 µM with OVCAR-4 ovarian; 97.5 µM in the test on NCI-H522 lung; 13.1 µM with COLO 205 colon; 29.2 µM in the test with SF-295 CNS; above 100 µM with CAKI-1 renal; 56 µM in the test with SK-MEL-2 melanoma. The molecule further gave a TGI in the test on NCI-H23 lung of 62 µM.

For `CN1NC(=Nc2ccccc2)Sc2c1cnn(-c1ccccc1)c2=O`, the TGI in the test on OVCAR-4 ovarian, in the test on COLO 205 colon, in the test with RXF 393 renal, in the test with LOX IMVI melanoma, in the test on SF-295 CNS and with SK-MEL-2 melanoma was above 100 µM throughout. This molecule also yielded a TGI in the test with NCI-H23 lung above 100 µM.

`N.N.N.N.[Cl-].[Co+3].[N-]=[N+]=[N-].[N-]=[N+]=[N-]`: the GI50 with OVCAR-4 ovarian, in the test on NCI-H522 lung, with COLO 205 colon, with LOX IMVI melanoma, in the test on SF-295 CNS and with SK-MEL-2 melanoma was above 100 µM throughout. For the same molecule, the GI50 in the test on NCI-H23 lung is above 100 µM. In addition, the TGI in the test with OVCAR-4 ovarian, in the test on NCI-H522 lung, with COLO 205 colon, with LOX IMVI melanoma, with SF-295 CNS and in the test on SK-MEL-2 melanoma was above 100 µM each time. In the test on NCI-H23 lung, this molecule gave a TGI above 100 µM.

As to `COC(=O)OCC1OC(N2C(=O)NC(=O)C(Br)C2N=[N+]=[N-])CC1OC(=O)OC` (stereo not given), the TGI in the test on OVCAR-4 ovarian, with NCI-H522 lung, in the test on COLO 205 colon, with RXF 393 renal, in the test on LOX IMVI melanoma and with SF-295 CNS was above 100 µM in each case. Moreover, the TGI in the test with CAKI-1 renal and with NCI-H23 lung was above 100 µM each time.

With `C[C@]12CC[C@H](O)C[C@H]1CC[C@@H]1[C@@H]2CC[C@]2(C)[C@@H](C3=CC(=O)OC3)CC[C@]12O`, the GI50 was 0.0389 µM in the test on OVCAR-4 ovarian and 0.0292 µM in the test with SF-295 CNS. Moreover, the TGI was 0.226 µM with OVCAR-4 ovarian; 0.436 µM in the test on NCI-H522 lung; 2.32 µM in the test on COLO 205 colon; 0.0681 µM in the test on RXF 393 renal; 0.533 µM in the test on LOX IMVI melanoma; 0.0959 µM in the test on SF-295 CNS. Moreover, the TGI with CAKI-1 renal is 0.18 µM; in the test with SK-MEL-2 melanoma it was 1.56 µM.

Take `CC(C)OC(=O)NNc1cc(Cl)ccc1Cl`: the TGI in the test with NCI-H522 lung, in the test on COLO 205 colon, with LOX IMVI melanoma, in the test with SF-295 CNS, with CAKI-1 renal and in the test on SK-MEL-2 melanoma was above 100 µM each time. In the test with NCI-H23 lung, this molecule had a TGI above 100 µM.

For `C=C1C(=O)O[C@H]2/C=C(/C)C3=CC(=O)[C@@](C)(C[C@@H](OC(=O)/C(C)=C\C)C12)O3` (stereo not given in full), the TGI was above 26.5 µM in the test with OVCAR-4 ovarian; 0.605 µM in the test with NCI-H522 lung; 1.5 µM with RXF 393 renal; 1.14 µM in the test on LOX IMVI melanoma; 29.3 µM with SF-295 CNS; 0.432 µM in the test on CAKI-1 renal. The TGI came out at 16.6 µM with SK-MEL-2 melanoma and 10.3 µM in the test on NCI-H23 lung.

As to `CN[C@@H](C)[C@H](NC)c1ccccc1`, the TGI in the test on NCI-H522 lung, in the test with COLO 205 colon, with RXF 393 renal, with LOX IMVI melanoma, in the test on SF-295 CNS and in the test on CAKI-1 renal was above 100 µM each time. Further, the TGI with NCI-H23 lung was above 100 µM.

`COc1cc2cccc(N=Cc3cccc(OC)c3OC(C)C)c2cc1OC`: the TGI is 52.4 µM in the test with OVCAR-4 ovarian; 39.7 µM in the test on NCI-H522 lung; above 100 µM in the test with COLO 205 colon; 41.2 µM with SF-295 CNS; 42.9 µM with CAKI-1 renal; 48.6 µM in the test on SK-MEL-2 melanoma. In the test with NCI-H23 lung, the TGI stood at 57.2 µM.
